Reference: patent publication US8247211B2, “Glycopeptide antibiotics” (American Cyanamid Company, priority 2001, dated 2012)

How the values were obtained:
Assay in all cases: In vitro antibacterial evaluation: minimum inhibitory concentration (MIC), broth dilution method
Format in all cases: cell-based
Conditions in all cases: 18 hours at 35° C.
[1] = tested on: Staphylococcus sp.
Summary of the method: (§1)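 First, organisms are seeded at 5×10^5 CFU/mL into Muller-Hinton II […]. Next, antibiotic is applied across 64-0.06 μg/mL by broth dilution (NCCLS M7-A2). Finally, the lowest inhibitory concentration is recorded as MIC.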

[2] = tested on: Escherichia coli
Summary of the method: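 An MIC is reported for each organism as the least concentration giving inhibition, using broth dilution over 64-0.06 μg/mL with a 5×10^5 CFU/mL inoculum.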

[3] = tested on: Streptococcus sp.
Summary of the method: as §1

[4] = tested on: Enterococcus sp.
Summary of the method: as §1

Which results are given for “α-O-[(N-Methyl-2-methylpropylamino)carbonyl]-cyclo[glycyl-β-methylphenylalanyl-O-(4-O-hexopyranosylhexopyranosyl)tyrosyl-3-(2-iminoimidazolidin-4-yl)seryl-3-(3-hexopyranosyl-2-iminoimidazolidin-4-yl)serylseryl] [Example 255]”?
MIC Coagulase Negative Staphylococcus (GC 4547) ([1]; Coagulase Negative Staphylococcus (GC 4547)): 32 µg/mL; MIC Coagulase Negative Staphylococcus (GC 4548) ([1]; Coagulase Negative Staphylococcus (GC 4548)): 64 µg/mL; MIC Coagulase Negative Staphylococcus (GC 4549) ([1]; Coagulase Negative Staphylococcus (GC 4549)): 32 µg/mL; MIC Coagulase Negative Staphylococcus (GC 4551) ([1]; Coagulase Negative Staphylococcus (GC 4551)): 64 µg/mL; MIC Coagulase Negative Staphylococcus (GC 6257) ([1]; Coagulase Negative Staphylococcus (GC 6257)): 32 µg/mL; MIC Staphylococcus aureus (ATCC 29213) ([1]; Staphylococcus aureus (ATCC 29213)): >0.5 µg/mL; MIC Staphylococcus aureus (GC 1131) ([1]; Staphylococcus aureus (GC 1131)): >0.5 µg/mL; MIC Staphylococcus aureus (GC 3051) ([1]; Staphylococcus aureus (GC 3051)): 0.5 µg/mL; MIC Staphylococcus aureus (GC 3053) ([1]; Staphylococcus aureus (GC 3053)): 0.5 µg/mL; MIC Staphylococcus aureus (GC 4541) ([1]; Staphylococcus aureus (GC 4541)): 0.5 µg/mL; MIC Staphylococcus aureus (GC 4542) ([1]; Staphylococcus aureus (GC 4542)): 0.5 µg/mL; MIC Staphylococcus aureus (GC 4544) ([1]; Staphylococcus aureus (GC 4544)): 0.5 µg/mL; MIC Staphylococcus aureus (GC 4545) ([1]; Staphylococcus aureus (GC 4545)): 0.5 µg/mL; MIC Staphylococcus aureus-SMITH (GC 4543) ([1]; Staphylococcus aureus-SMITH (GC 4543)): 0.5 µg/mL; MIC Staphylococcus haemolyticus (GC 4546) ([1]; Staphylococcus haemolyticus (GC 4546)): 32 µg/mL; MIC Staphylococcus aureus (ATCC 29213) ([1]; broth dilution, strain ATCC 29213): >0.5 µg/mL; MIC Staphylococcus aureus (GC 1131) ([1]; broth dilution, strain GC 1131): >0.5 µg/mL; MIC Staphylococcus aureus (GC 3051) ([1]; broth dilution, strain GC 3051): 0.5 µg/mL; MIC Staphylococcus aureus (GC 3053) ([1]; broth dilution, strain GC 3053): 0.5 µg/mL; MIC Staphylococcus aureus (GC 4541) ([1]; broth dilution, strain GC 4541): 0.5 µg/mL; MIC Staphylococcus aureus (GC 4542) ([1]; broth dilution, strain GC 4542): 0.5 µg/mL; MIC Staphylococcus aureus-SMITH (GC 4543) ([1]; broth dilution, strain GC 4543): 0.5 µg/mL; MIC Staphylococcus aureus (GC 4544) ([1]; broth dilution, strain GC 4544): 0.5 µg/mL; MIC Staphylococcus aureus (GC 4545) ([1]; broth dilution, strain GC 4545): 0.5 µg/mL; MIC Staphylococcus haemolyticus (GC 4546) ([1]; broth dilution, strain GC 4546): 32 µg/mL; MIC Coagulase Negative Staphylococcus (GC 4547) ([1]; broth dilution, strain GC 4547): 32 µg/mL; MIC Coagulase Negative Staphylococcus (GC 4548) ([1]; broth dilution, strain GC 4548): 64 µg/mL; MIC Coagulase Negative Staphylococcus (GC 4549) ([1]; broth dilution, strain GC 4549): 32 µg/mL; MIC Coagulase Negative Staphylococcus (GC 4551) ([1]; broth dilution, strain GC 4551): 64 µg/mL; MIC Coagulase Negative Staphylococcus (GC 6257) ([1]; broth dilution, strain GC 6257): 32 µg/mL; MIC Escherichia coli (ATCC 25922) ([2]; Escherichia coli (ATCC 25922)): >0.5 µg/mL; MIC Escherichia coli (GC 4559) ([2]; Escherichia coli (GC 4559)): >0.5 µg/mL; MIC Escherichia coli (GC 4560) ([2]; Escherichia coli (GC 4560)): 0.5 µg/mL; MIC Streptococcus agalactiae (GC 4564) ([3]; Streptococcus agalactiae (GC 4564)): 32 µg/mL; MIC Streptococcus pneumoniae (GC 4565) ([3]; Streptococcus pneumoniae (GC 4565)): 16 µg/mL; MIC Streptococcus pyogenes (GC 4563) ([3]; Streptococcus pyogenes (GC 4563)): 16 µg/mL; MIC Streptococcus pyogenes (GC 4563) ([3]; broth dilution, strain GC 4563): 16 µg/mL; MIC Streptococcus agalactiae (GC 4564) ([3]; broth dilution, strain GC 4564): 32 µg/mL; MIC Streptococcus pneumoniae (GC 4565) ([3]; broth dilution, strain GC 4565): 16 µg/mL; MIC Enterococcus avium (GC 4558) ([4]; Enterococcus avium (GC 4558)): >0.5 µg/mL; MIC Enterococcus faecalis (ATCC 29212) ([4]; Enterococcus faecalis (ATCC 29212)): >0.5 µg/mL; MIC Enterococcus faecalis (GC 2242) ([4]; Enterococcus faecalis (GC 2242)): >0.5 µg/mL; MIC Enterococcus faecalis (GC 2691) ([4]; Enterococcus faecalis (GC 2691)): >0.5 µg/mL; MIC Enterococcus faecalis (GC 3059) ([4]; Enterococcus faecalis (GC 3059)): >0.5 µg/mL; MIC Enterococcus faecalis (GC 4552) ([4]; Enterococcus faecalis (GC 4552)): >0.5 µg/mL; MIC Enterococcus faecalis (GC 4553) ([4]; Enterococcus faecalis (GC 4553)): >0.5 µg/mL; MIC Enterococcus faecalis (GC 4554) ([4]; Enterococcus faecalis (GC 4554)): >0.5 µg/mL; MIC Enterococcus faecalis (GC 6189) ([4]; Enterococcus faecalis (GC 6189)): >0.5 µg/mL; MIC Enterococcus faecium (GC 2243) ([4]; Enterococcus faecium (GC 2243)): >64 µg/mL; MIC Enterococcus faecium (GC 4556) ([4]; Enterococcus faecium (GC 4556)): >64 µg/mL; MIC Enterococcus faecium (GC 4557) ([4]; Enterococcus faecium (GC 4557)): 16 µg/mL; MIC Enterococcus faecalis (ATCC 29212) ([4]; broth dilution, strain ATCC 29212): >0.5 µg/mL; MIC Enterococcus faecalis (GC 2242) ([4]; broth dilution, strain GC 2242): >0.5 µg/mL; MIC Enterococcus faecium (GC 2243) ([4]; broth dilution, strain GC 2243): >64 µg/mL; MIC Enterococcus faecalis (GC 2691) ([4]; broth dilution, strain GC 2691): >0.5 µg/mL; MIC Enterococcus faecalis (GC 3059) ([4]; broth dilution, strain GC 3059): >0.5 µg/mL; MIC Enterococcus faecalis (GC 4552) ([4]; broth dilution, strain GC 4552): >0.5 µg/mL; MIC Enterococcus faecalis (GC 4553) ([4]; broth dilution, strain GC 4553): >0.5 µg/mL; MIC Enterococcus faecalis (GC 4554) ([4]; broth dilution, strain GC 4554): >0.5 µg/mL; MIC Enterococcus faecium (GC 4556) ([4]; broth dilution, strain GC 4556): >64 µg/mL; MIC Enterococcus faecium (GC 4557) ([4]; broth dilution, strain GC 4557): 16 µg/mL; MIC Enterococcus avium (GC 4558) ([4]; broth dilution, strain GC 4558): >0.5 µg/mL; MIC Enterococcus faecalis (GC 6189) ([4]; broth dilution, strain GC 6189): >0.5 µg/mL
